US5298521A, “1,5-diphenyl-3-pyrazolylalkyl-N-hydroxydithiocaramates, compositions and use” (Ortho Pharmaceutical Corporation, priority 1993, dated 1994)
pIC50: −log10 of the molar value.

Biological target: T1, 5-LO in intact RBL-1 cells (Rattus norvegicus, UniProt P12527)
T1 construct: endogenous in cells; host or cells: intact RBL-1 cells
T1 sequence (P12527 1-673): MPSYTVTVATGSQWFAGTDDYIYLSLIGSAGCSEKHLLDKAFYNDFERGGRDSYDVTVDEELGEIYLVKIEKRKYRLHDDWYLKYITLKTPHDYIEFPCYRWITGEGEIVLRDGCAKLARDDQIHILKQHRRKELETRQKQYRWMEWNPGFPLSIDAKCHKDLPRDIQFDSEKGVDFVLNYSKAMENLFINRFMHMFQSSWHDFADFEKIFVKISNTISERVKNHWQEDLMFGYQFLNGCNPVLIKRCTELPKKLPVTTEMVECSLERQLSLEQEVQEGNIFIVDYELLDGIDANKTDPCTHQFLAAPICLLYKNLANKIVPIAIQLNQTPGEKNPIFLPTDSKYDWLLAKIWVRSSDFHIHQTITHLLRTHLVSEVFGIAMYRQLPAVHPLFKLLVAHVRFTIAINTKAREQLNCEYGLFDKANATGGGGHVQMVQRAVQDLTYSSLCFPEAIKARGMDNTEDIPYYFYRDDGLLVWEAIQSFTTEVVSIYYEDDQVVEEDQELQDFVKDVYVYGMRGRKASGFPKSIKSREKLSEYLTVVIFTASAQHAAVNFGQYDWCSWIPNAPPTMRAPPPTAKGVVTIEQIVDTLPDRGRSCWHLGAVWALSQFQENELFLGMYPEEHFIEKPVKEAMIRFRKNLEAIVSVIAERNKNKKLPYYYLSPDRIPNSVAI
Experiment: 5-LO inhibition in intact RBL-1 cells (Procedure III)
Type: cell-based
Details: read-out: PROC. III IC50 5-LO
Protocol: The ability to inhibit 5-LO and CO in intact RBL-1 cells was also evaluated. RBL-1 cells were maintained in culture in minimal essential medium (Bio*Whittaker, Walkersville, MD), containing 12.5% fetal calf serum, 10 mg/mL streptomycin, 10 I.U./mL penicillin G, […] gentamycin and 2 mM L-glutamine (Bio*Whittaker, Walkersville, MD). Cells were collected by centrifugation, washed once in HBSS, and resuspended at a concentration of 1×10^5 cells/mL. Cells were incubated in the presence of vehicle or drug then centrifuged at 800×g for 10 minutes at 4° C. The supernatant was removed by aspiration and the cells were resuspended in 0.5 mL of HBSS. The reaction was started by the addition of 20 μg/mL of calcium ionophore A-23187 (mixed calcium and magnesium salts, Calbiochem, La Jolla CA) and allowed to proceed for 15 minutes, then stopped by plunging the tubes into a slush ice bath. The conversion of AA to 5-LO products was initiated by the addition of 10 μL (50 uCi) of 1-^14 C-AA. Products were isolated by acidification and extraction, followed by thin layer chromatography analysis as described above. Radioactive areas corresponding to authentic 5-LO and CO products were quantitated by the Bioscan 2000 Imaging System.

For `COc1ccc(-n2nc(CSC(=S)N(O)C(C)C)cc2-c2ccc(Cl)cc2)cc1` [1-B], the pIC50 was 5.15.

For `COc1ccc(-n2nc(CSC(=S)N(C)O)c(Cl)c2-c2ccc(Cl)cc2)cc1` [1-C], the pIC50 was 6.62.

Compound `COc1ccc(-n2nc(CSC(=S)N(O)C(C)C)c(Br)c2-c2ccc(Cl)cc2)cc1` [1-E] has a pIC50 of 5.55.

With `COc1ccc(-n2nc(CSC(=S)N(O)C(C)C)cc2-c2ccc(C)cc2)cc1` [1-G] the pIC50 was 5.25.

For `COc1ccc(-n2nc(CSC(=S)N(C)O)c(Cl)c2-c2ccc(C)cc2)cc1` [1-H], the pIC50 was 6.17.
